{
  "source": "patent EP2380890A1",
  "about": "“New 7,8-dihydro-1,6-naphthyridin-5(6h)-one-derivatives as PDE4 inhibitors” (Almirall, S.A., priority 2010, dated 2011)",
  "data": [
    {"biological_target": "PDE4", "assay": "PDE4 assay: [3H] cAMP Scintillation Proximity Assay (SPA) of phosphodiesterase activity", "type": "biochemical", "details": "yeast extract of recombinant PDE4 enzyme, 30 nM [3H] cAMP, 1 h at room temperature, pH 7.5", "experimental": "Measurement of Phosphodiesterase Activity was done using a [3H] cAMP Scintillation Proximity Assay (SPA) (GE Healthcare). Compounds to be tested were disolved in DMSO at a stock concentration of 1mM and serial dilutions were prepared in 50% DMSO to determine IC50s.\nThe reactions were conducted in 96-well plates (Corning, Ref.3604) at room temperature, in 0.1 mL of reaction buffer containing (final concentrations): 50 mM Tris-HCl, pH 7.5, 8.3 mM MgCl2, 1.7 mM EGTA, 30 nM [3H] cAMP (approximately 150000 dpm/well) with or without the inhibitors. The reaction was initiated by adding yeast extract of recombinant PDE4 enzyme.\nPlates were shaken for 1 h at room temperature and the incubation was terminated by adding 50 µL (0.5 mg /well) of SPA ytrium silicate beads (RPNQ 0150; GE Healthcare) in the presence of zinc sulfate. Plates were stored overnight in the dark and read on a TRILUX microtiter plate reader (Perkin Elmer).", "units": {"IC50": "nM"}, "values": [
      {"compound": "COc1cccc(Nc2cc(-c3ccccc3)nc3c2C(=O)NCC3)c1", "note": "[Example 1, 4-[(3-Methoxyphenyl)amino]-2-phenyl-7,8-dihydro-1,6-naphthyridin-5(6H)-one]", "IC50": 1.6},
      {"compound": "O=C1NCCc2nc(-c3ccccc3)cc(Nc3ccc(CCO)cc3)c21", "note": "[Example 2, 4-{[4-(2-Hydroxyethyl)phenyl]amino}-2-phenyl-7,8-dihydro-1,6-naphthyridin-5(6H)-one]", "IC50": 12},
      {"compound": "COc1cccc(Nc2cc(-c3cccc(OC)c3)nc3c2C(=O)NCC3)c1", "note": "[Example 8, 2-(3-Methoxyphenyl)-4-[(3-methoxyphenyl)amino]-7,8-dihydro-1,6-naphthyridin-5(6H)-one]", "IC50": 8},
      {"compound": "COc1cccc(Nc2cc(-c3ccccc3OC)nc3c2C(=O)NCC3)c1", "note": "[Example 9, 2-(2-Methoxyphenyl)-4-[(3-methoxyphenyl)amino]-7,8-dihydro-1,6-naphthyridin-5(6H)-one]", "IC50": 32},
      {"compound": "COc1cccc(Nc2cc(-c3cccc(-c4cccc(C(N)=O)c4)c3)nc3c2C(=O)NCC3)c1", "note": "[Example 12, 3'-{4-[(3-Methoxyphenyl)amino]-5-oxo-5,6,7,8-tetrahydro-1,6-naphthyridin-2-yl}biphenyl-3-carboxamide]", "IC50": 0.28},
      {"compound": "COc1cccc(Nc2cc(-c3cccc(-c4ccc(C(=O)O)cc4)c3)nc3c2C(=O)NCC3)c1", "note": "[Example 13, 3'-{4-[(3-Methoxyphenyl)amino]-5-oxo-5,6,7,8-tetrahydro-1,6-naphthyridin-2-yl}biphenyl-4-carboxylic acid]", "IC50": 0.34},
      {"compound": "COc1cccc(Nc2cc(-c3cccc(-c4cccc(C(=O)NCCN(C)C)c4)c3)nc3c2C(=O)NCC3)c1", "note": "[Example 14, N-[2-(Dimethylamino)ethyl]-3'-{4-[(3-methoxyphenyl)amino]-5-oxo-5,6,7,8-tetrahydro-1,6-naphthyridin-2-yl}biphenyl-3-carboxamide]", "IC50": 0.23},
      {"compound": "COc1cccc(Nc2cc(-c3cccc(Sc4cccc(OC)c4)c3)nc3c2C(=O)NCC3)c1", "note": "[Example 16, 4-[(3-Methoxyphenyl)amino]-2-{3-[(3-methoxyphenyl)thio]phenyl}-7,8-dihydro-1,6-naphthyridin-5(6H)-one]", "IC50": 1.6},
      {"compound": "O=C1NCCc2nc(-c3ccccc3)cc(NCc3ccncc3)c21", "note": "[Example 17, 2-Phenyl-4-[(pyridin-4-ylmethyl)amino]-7,8-dihydro-1,6-naphthyridin-5(6H)-one]", "IC50": 25},
      {"compound": "NC(=O)c1ccc(Nc2cc(-c3ccccc3)nc3c2C(=O)NCC3)cc1", "note": "[Example 18, 4-[(5-Oxo-2-phenyl-5,6,7,8-tetrahydro-1,6-naphthyridin-4-yl)amino]benzamide]", "IC50": 1.5},
      {"compound": "COc1cc(Nc2cc(-c3ccccc3)nc3c2C(=O)NCC3)ccc1C(=O)O", "note": "[Example 19, 2-Methoxy-4-[(5-oxo-2-phenyl-5,6,7,8-tetrahydro-1,6-naphthyridin-4-yl)amino]benzoic acid]", "IC50": 2.3},
      {"compound": "COc1cccc(Nc2cc(-c3ccncc3)nc3c2C(=O)NCC3)c1", "note": "[Example 22, 4-[(3-Methoxyphenyl)amino]-2-pyridin-4-yl-7,8-dihydro-1,6-naphthyridin-5(6H)-one]", "IC50": 3.6},
      {"compound": "O=C1NCCc2nc(-c3ccccc3)cc(Nc3cccc4ncccc34)c21", "note": "[Example 24, 2-Phenyl-4-(quinolin-5-ylamino)-7,8-dihydro-1,6-naphthyridin-5(6H)-one]", "IC50": 0.96},
      {"compound": "O=C(O)c1ccc(Nc2cc(-c3ccccc3)nc3c2C(=O)NCC3)cc1", "note": "[Example 25, 4-[(5-Oxo-2-phenyl-5,6,7,8-tetrahydro-1,6-naphthyridin-4-yl)amino]benzoic acid]", "IC50": 9},
      {"compound": "COc1cccc(Nc2cc(-c3ccccc3)nc3c2C(=O)NC(C)C3)c1", "note": "(stereo not drawn) [Example 26, 4-[(3-Methoxyphenyl)amino]-7-methyl-2-phenyl-7,8-dihydro-1,6-naphthyridin-5(6H)-one]", "IC50": 117},
      {"compound": "COc1cccc(Nc2nc(-c3ccccc3)nc3c2C(=O)NCC3)c1", "note": "[Example 32, 4-[(3-Methoxyphenyl)amino]-2-phenyl-7,8-dihydropyrido[4,3-d]pyrimidin-5(6H)-one]", "IC50": 52},
      {"compound": "COc1cccc(Nc2cc(C3CC3)nc3c2C(=O)NCC3)c1", "note": "[Example 33, 2-Cyclopropyl-4-[(3-methoxyphenyl)amino]-7,8-dihydro-1,6-naphthyridin-5(6H)-one]", "IC50": 9},
      {"compound": "COc1cccc(Nc2cc(-c3cccc(-c4cc(C(=O)O)ccc4Cl)c3)nc3c2C(=O)NCC3)c1", "note": "[Example 35, 6-Chloro-3'-{4-[(3-methoxyphenyl)amino]-5-oxo-5,6,7,8-tetrahydro-1,6-naphthyridin-2-yl}biphenyl-3-carboxylic acid]", "IC50": 0.81},
      {"compound": "O=C1NCCc2nc(-c3ccccc3)cc(Nc3cccc4cnccc34)c21", "note": "[Example 37, 4-(Isoquinolin-5-ylamino)-2-phenyl-7,8-dihydro-1,6-naphthyridin-5(6H)-one]", "IC50": 14},
      {"compound": "O=C1NCCc2nc(-c3ccccc3)cc(Nc3ccc4ncccc4c3)c21", "note": "[Example 38, 2-Phenyl-4-(quinolin-6-ylamino)-7,8-dihydro-1,6-naphthyridin-5(6H)-one]", "IC50": 2.3},
      {"compound": "O=C1NCCc2nc(-c3ccccc3)cc(Nc3n[nH]c4ncccc34)c21", "note": "[Example 41, 2-Phenyl-4-(1H-pyrazolo[3,4-b]pyridin-3-ylamino)-7,8-dihydro-1,6-naphthyridin-5(6H)-one]", "IC50": 6},
      {"compound": "COc1cccc(Nc2cc(-c3cccc(-c4cc(C(=O)O)ccc4O)c3)nc3c2C(=O)NCC3)c1", "note": "[Example 43, 6-Hydroxy-3'-{4-[(3-methoxyphenyl)amino]-5-oxo-5,6,7,8-tetrahydro-1,6-naphthyridin-2-yl}biphenyl-3-carboxylic acid]", "IC50": 10},
      {"compound": "COc1cccc(Nc2cc(-c3ccccc3)nc3c2C(=O)NCC3C)c1", "note": "(stereo not drawn) [Example 44, 4-[(3-Methoxyphenyl)amino]-8-methyl-2-phenyl-7,8-dihydro-1,6-naphthyridin-5(6H)-one]", "IC50": 640},
      {"compound": "O=C1NCCc2nc(-c3ccccc3)cc(Nc3ccc(C[C@@H](O)CO)cc3)c21", "note": "[Example 47, 4-({4-[(2R)-2,3-dihydroxypropyl]phenyl}amino)-2-phenyl-7,8-dihydro-1,6-naphthyridin-5(6H)-one]", "IC50": 9},
      {"compound": "O=C(NC1CC1)c1cccc(-c2cccc(-c3cc(Nc4cccc5ncccc45)c4c(n3)CCNC4=O)c2)c1", "note": "[Example 49, N-Cyclopropyl-3'-[5-oxo-4-(quinolin-5-ylamino)-5,6,7,8-tetrahydro-1,6-naphthyridin-2-yl]biphenyl-3-carboxamide]", "IC50": 0.17},
      {"compound": "O=C1NCCc2nc(-c3ccccc3)cc(Nc3cccc4c3ccc[n+]4[O-])c21", "note": "[Example 51, 4-[(1-Oxidoquinolin-5-yl)amino]-2-phenyl-7,8-dihydro-1,6-naphthyridin-5(6H)-one]", "IC50": 0.43},
      {"compound": "O=C(NC1CC1)c1cccc(-c2cccc(-c3cc(Nc4cccc5c4ccc[n+]5[O-])c4c(n3)CCNC4=O)c2)c1", "note": "[Example 56, N-Cyclopropyl-3'-{4-[(1-oxidoquinolin-5-yl)amino]-5-oxo-5,6,7,8-tetrahydro-1,6-naphthyridin-2-yl}biphenyl-3-carboxamide]", "IC50": 0.05},
      {"compound": "N#C/N=C1\\NCCc2nc(-c3ccc(F)c(F)c3)cc(Nc3cccc4ncccc34)c21", "note": "[Example 57, [(5Z)-2-(3,4-Difluorophenyl)-4-(quinolin-5-ylamino)-7,8-dihydro-1,6-naphthyridin-5(6H)-ylidene]cyanamide]", "IC50": 0.9},
      {"compound": "CN(C)CCCNC(=O)c1cccc(-c2cccc(-c3cc(Nc4cccc5ncccc45)c4c(n3)CCNC4=O)c2)c1", "note": "[Example 59, N-[3-(Dimethylamino)propyl]-3'-[5-oxo-4-(quinolin-5-ylamino)-5,6,7,8-tetrahydro-1,6-naphthyridin-2-yl]biphenyl-3-carboxamide]", "IC50": 0.105},
      {"compound": "Cc1c(F)cc(C(=O)NC2CC2)cc1-c1cccc(-c2cc(Nc3cccc4ncccc34)c3c(n2)CCNC3=O)c1", "note": "[Example 61, N-Cyclopropyl-5-fluoro-6-methyl-3'-[5-oxo-4-(quinolin-5-ylamino)-5,6,7,8-tetrahydro-1,6-naphthyridin-2-yl]biphenyl-3-carboxamide]", "IC50": 0.05}
    ]}
  ]
}
